Data as given in publication PMC5666424, “Marine-Derived 2-Aminoimidazolone Alkaloids. Leucettamine B-Related Polyandrocarpamines Inhibit Mammalian and Protozoan DYRK & CLK Kinases” (Marine Drugs, 2017).
Where two headings read alike, the source gives them in different places.

Tests used:
Assay in all cases: Protein kinase assay
CDK1/cyclin B = assay type: biochemical, starfish; conditions: 15 μmol/L ATP
CLK3 = CLK3 (Mus musculus, UniProt O35492)
DYRK2 = molecular target: T1, DYRK2 (Homo sapiens, UniProt Q92630); assay type: biochemical; conditions: 15 μmol/L ATP; read-out: IC50 DYRK2
T1 sequence (Q92630 1-601): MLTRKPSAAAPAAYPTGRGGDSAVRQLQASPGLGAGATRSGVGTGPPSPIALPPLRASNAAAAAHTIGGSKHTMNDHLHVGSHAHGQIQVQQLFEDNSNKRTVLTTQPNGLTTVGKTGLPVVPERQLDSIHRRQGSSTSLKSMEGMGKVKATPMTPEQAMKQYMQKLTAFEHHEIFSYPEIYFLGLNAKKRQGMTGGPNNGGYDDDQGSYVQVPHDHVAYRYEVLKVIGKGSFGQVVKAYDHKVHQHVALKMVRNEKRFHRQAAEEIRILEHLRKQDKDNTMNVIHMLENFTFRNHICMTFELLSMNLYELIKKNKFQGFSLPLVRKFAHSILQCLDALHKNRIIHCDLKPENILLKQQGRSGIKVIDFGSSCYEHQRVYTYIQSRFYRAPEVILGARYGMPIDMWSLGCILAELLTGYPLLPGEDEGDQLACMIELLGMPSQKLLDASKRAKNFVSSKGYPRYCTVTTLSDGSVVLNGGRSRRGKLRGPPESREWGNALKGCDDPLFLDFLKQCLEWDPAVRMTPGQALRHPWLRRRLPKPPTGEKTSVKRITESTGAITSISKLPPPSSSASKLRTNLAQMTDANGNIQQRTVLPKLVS

CLK4 = CLK4 (Mus musculus, UniProt O35493)
DYRK1A = DYRK1A (Homo sapiens, UniProt Q13627); assay type: biochemical; conditions: 15 μmol/L ATP
DYRK1B = DYRK1B (Homo sapiens, UniProt Q9Y463); assay type: biochemical; conditions: 15 μmol/L ATP
DYRK3 = molecular target: T2, DYRK3 (Homo sapiens, UniProt O43781); assay type: biochemical; conditions: 15 μmol/L ATP; read-out: IC50 DYRK3
T2 sequence (O43781 1-588): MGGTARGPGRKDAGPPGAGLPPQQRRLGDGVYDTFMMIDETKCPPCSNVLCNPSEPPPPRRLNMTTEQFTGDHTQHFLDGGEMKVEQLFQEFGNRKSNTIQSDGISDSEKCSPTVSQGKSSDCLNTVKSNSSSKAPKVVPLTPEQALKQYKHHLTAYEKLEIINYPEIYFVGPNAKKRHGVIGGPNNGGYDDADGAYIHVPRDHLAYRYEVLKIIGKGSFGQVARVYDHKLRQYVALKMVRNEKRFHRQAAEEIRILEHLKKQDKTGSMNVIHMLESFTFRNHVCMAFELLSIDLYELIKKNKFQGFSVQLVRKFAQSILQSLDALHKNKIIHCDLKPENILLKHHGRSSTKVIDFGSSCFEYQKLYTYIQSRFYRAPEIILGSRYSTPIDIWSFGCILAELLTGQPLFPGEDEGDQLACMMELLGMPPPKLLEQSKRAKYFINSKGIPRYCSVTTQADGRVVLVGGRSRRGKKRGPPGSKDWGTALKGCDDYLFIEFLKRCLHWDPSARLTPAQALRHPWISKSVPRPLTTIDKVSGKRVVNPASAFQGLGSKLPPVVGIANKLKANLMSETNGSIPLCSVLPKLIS

CLK1 = CLK1 (Mus musculus, UniProt P22518)
GSK-3α/β = assay type: biochemical, porcine; conditions: 15 μmol/L ATP
CDK9/cyclin T = CDK9/cyclin T (Homo sapiens, UniProt P50750); conditions: 15 μmol/L ATP
CLK2 = CLK2 (Mus musculus, UniProt O35491)
CK1δ/ε = assay type: biochemical, porcine; conditions: 15 μmol/L ATP
Experimental: (§1) CK1δ/ε (porcine brain, native) and LmCK1 (leishmania major, recombinant, expressed in E. coli as HIS fusion proteins) was assayed as described for CDK1 but in buffer C and using 25 μM CKS peptide ([…]pSAYSITA), a CK1-specific substrate.

LmCK1 = LmCK1 (Leishmania major, UniProt Q9NHE1); assay type: biochemical; conditions: 15 μmol/L ATP; read-out: IC50 LmCK1
Experimental: as §1

PfGSK-3 = molecular target: T3, PfGSK-3 (Plasmodium falciparum, UniProt O77344); assay type: biochemical; conditions: 15 μmol/L ATP; read-out: IC50 PfGSK-3
T3 sequence (O77344 1-440): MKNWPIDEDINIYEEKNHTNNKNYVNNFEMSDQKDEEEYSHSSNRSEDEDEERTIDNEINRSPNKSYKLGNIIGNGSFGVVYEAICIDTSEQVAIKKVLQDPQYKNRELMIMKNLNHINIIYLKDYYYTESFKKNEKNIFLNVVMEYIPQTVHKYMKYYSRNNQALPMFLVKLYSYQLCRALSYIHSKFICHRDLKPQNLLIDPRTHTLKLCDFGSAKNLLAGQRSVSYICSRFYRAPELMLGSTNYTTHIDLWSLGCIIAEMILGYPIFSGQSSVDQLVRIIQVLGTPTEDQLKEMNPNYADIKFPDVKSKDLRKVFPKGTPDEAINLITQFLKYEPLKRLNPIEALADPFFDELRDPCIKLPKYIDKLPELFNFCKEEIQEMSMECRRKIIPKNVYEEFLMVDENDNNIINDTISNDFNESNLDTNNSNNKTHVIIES
Experimental: The parasitic kinase genes (Supplementary Data, Table S3) were optimized for expression in E. coli, synthesized, and cloned in pGEX-6P-1 (GE Healthcare, Sigma-Aldrich, St. Quentin Fallavier, France) with the type II restriction enzymes BamHI and XhoI for glutathione S-transferase (GST) fusion at the N-terminus (GenScript). Plasmids were transformed into chemically competent E. coli BL21(DE3), which were grown overnight at 37 °C in 2 × YT medium containing 100 μg/mL ampicillin. These cultures were used to inoculate 1 L volumes of 2 × YT medium (containing 100 μg/mL ampicillin) in 5 L flasks. The cultures were allowed to grow at 37 °C before the temperature was decreased to 18 °C. At an optical density at 600 nm (OD600) of about 1.0, protein expression was induced overnight at 18 °C with 0.1 mM isopropyl β-D-1-thiogalactopyranoside (IPTG). The bacteria were harvested by centrifugation and were frozen at −20 °C.
Cells were resuspended in a lysis buffer (PBS pH 7.4, 1% NP40, 1 mM DTT, 1 mM EDTA, 1 mM PMSF) in the presence of protease inhibitor cocktail (Roche), and lysozyme was added to 1 mg/mL and incubated 1 h at 4 °C with gentle agitation. Cells were then sonicated on ice before 6 mM MgCl2 and 25 U/mL benzonase (Novagen, Merck Millipore, Fontenay sous Bois, France) were added to degrade nucleic acids and decrease sample viscosity. After centrifugation at 4 °C, the soluble fraction was collected and proteins were bound to Glutathione sepharose 4B beads (GE Healthcare). Beads were washed three times with lysis buffer and once with modified buffer C (25 mM MOPS pH 7.0, 60 mM β-glycerophosphate, 15 mM p-nitrophenylphosphate, 15 mM EGTA, 15 mM MgCl2, 2 mM DTT, 1 mM sodium vanadate). Proteins were eluted with elution buffer (buffer C containing 30 mM reduced glutathione, 15% glycerol, and pH adjusted to 8.5).

CDK5/p25 = molecular target: T4, CDK5/p25 (Homo sapiens, UniProt Q00535); assay type: biochemical; conditions: 15 μmol/L ATP; read-out: IC50 CDK5/p25
T4 construct: made in house

CDK2/cyclin A = molecular target: T5, CDK2/cyclin A (Homo sapiens, UniProt P24941); assay type: biochemical; conditions: 15 μmol/L ATP; read-out: IC50 CDK2/cyclin A
T5 construct: made in house

[1] = read-out: IC50 CLK3, 15 μmol/L ATP
[2] = read-out: IC50 CLK4, 15 μmol/L ATP
[3] = read-out: IC50 CLK1, 15 μmol/L ATP
[4] = read-out: IC50 CLK2, 15 μmol/L ATP

Sequence of LmCK1 (Q9NHE1 entry or part of it): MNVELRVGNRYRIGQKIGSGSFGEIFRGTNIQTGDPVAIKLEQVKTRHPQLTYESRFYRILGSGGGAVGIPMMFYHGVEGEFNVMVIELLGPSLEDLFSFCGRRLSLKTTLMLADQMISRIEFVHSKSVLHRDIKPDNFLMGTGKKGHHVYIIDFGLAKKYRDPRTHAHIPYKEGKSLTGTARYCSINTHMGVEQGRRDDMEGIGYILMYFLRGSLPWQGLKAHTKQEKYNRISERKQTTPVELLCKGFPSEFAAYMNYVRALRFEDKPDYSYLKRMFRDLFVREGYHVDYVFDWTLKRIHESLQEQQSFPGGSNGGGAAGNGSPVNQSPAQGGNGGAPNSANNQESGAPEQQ
Sequence of CLK4 (O35493 whole entry): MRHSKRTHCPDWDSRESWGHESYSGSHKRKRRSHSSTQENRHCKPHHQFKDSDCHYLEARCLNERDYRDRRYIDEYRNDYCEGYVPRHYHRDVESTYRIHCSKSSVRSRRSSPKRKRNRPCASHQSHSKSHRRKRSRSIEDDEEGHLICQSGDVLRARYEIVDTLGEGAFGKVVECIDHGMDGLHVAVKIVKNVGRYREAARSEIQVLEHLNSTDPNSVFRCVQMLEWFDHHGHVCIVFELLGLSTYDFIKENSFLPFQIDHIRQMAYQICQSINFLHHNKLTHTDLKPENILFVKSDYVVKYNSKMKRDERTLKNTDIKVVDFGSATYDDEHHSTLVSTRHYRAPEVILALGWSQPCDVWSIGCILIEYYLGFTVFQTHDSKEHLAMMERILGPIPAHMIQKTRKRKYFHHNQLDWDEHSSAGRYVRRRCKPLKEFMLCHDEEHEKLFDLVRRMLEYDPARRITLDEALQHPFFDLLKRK
Sequence of CLK2 (O35491 whole entry): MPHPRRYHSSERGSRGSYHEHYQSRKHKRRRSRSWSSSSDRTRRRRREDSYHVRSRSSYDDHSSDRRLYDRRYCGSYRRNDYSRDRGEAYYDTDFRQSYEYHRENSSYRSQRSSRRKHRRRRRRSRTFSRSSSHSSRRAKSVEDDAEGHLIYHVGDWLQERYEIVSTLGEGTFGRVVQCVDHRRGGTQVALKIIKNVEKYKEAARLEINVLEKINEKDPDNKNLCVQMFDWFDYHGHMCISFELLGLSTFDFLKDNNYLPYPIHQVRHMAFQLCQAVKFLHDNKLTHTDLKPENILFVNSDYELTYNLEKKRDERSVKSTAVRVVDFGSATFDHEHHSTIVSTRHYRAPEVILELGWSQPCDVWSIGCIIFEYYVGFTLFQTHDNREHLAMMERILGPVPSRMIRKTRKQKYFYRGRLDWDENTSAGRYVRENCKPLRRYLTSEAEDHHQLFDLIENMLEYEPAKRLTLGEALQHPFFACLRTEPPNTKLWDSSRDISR
Sequence of CLK1 (P22518 whole entry): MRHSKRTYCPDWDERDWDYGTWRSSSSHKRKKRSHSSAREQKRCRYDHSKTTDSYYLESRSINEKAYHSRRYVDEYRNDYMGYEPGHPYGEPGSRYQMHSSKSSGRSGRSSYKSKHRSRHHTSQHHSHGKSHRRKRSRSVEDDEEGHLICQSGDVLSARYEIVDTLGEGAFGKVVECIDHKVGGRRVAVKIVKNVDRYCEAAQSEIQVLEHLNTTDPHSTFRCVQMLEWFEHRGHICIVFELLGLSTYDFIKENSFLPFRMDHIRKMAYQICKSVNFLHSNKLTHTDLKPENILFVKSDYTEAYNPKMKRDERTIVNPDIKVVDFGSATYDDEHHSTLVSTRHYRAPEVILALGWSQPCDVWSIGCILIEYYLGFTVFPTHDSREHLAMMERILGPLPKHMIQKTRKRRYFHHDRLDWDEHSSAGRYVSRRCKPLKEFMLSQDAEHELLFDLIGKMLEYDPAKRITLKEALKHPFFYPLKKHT
T4 sequence (Q00535 whole entry): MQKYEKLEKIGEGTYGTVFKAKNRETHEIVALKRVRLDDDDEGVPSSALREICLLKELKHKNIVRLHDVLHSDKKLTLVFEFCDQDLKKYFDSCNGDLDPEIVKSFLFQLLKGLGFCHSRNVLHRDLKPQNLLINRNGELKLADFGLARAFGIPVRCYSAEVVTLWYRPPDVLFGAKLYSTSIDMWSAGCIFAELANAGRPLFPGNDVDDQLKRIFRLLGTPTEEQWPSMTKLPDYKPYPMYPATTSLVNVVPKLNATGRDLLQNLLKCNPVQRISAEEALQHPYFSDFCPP
T4 sequence (Q15078 99-307 partner limits assumed): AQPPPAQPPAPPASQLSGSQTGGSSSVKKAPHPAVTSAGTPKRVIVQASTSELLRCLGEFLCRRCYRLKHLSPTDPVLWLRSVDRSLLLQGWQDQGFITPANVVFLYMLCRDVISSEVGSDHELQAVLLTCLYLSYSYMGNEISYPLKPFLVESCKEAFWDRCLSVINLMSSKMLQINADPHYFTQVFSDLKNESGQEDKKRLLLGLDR
Sequence of DYRK1B (Q9Y463 whole entry): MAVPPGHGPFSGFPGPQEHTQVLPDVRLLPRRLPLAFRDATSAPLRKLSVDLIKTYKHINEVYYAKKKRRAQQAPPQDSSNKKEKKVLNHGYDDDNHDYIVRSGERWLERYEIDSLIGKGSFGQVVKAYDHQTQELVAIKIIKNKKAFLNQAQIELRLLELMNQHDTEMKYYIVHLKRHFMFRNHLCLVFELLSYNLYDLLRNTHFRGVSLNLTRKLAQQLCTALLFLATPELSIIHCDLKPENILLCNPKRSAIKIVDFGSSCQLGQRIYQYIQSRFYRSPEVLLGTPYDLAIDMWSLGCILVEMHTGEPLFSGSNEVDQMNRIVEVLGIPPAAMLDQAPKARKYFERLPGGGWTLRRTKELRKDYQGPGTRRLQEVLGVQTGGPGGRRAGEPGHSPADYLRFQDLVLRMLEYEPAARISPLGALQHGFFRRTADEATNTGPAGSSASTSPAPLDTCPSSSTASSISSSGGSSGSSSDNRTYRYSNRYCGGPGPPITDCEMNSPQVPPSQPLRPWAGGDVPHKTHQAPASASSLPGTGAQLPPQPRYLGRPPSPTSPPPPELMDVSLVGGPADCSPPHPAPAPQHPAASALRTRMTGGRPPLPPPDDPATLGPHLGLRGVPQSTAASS
Sequence of CLK3 (O35492 whole entry): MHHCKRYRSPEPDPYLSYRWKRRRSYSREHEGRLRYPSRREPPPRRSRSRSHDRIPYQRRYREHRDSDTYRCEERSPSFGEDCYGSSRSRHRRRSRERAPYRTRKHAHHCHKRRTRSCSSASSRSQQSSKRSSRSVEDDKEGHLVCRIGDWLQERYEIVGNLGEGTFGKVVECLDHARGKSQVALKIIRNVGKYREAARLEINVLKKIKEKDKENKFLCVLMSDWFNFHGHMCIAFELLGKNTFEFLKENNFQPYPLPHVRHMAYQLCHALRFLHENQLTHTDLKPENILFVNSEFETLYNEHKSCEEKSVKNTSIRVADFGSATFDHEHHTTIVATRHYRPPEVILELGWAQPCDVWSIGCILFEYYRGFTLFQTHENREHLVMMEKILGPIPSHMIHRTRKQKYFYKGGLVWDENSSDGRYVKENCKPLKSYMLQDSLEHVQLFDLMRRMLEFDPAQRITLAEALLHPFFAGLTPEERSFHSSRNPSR
Sequence of CDK9/cyclin T (P50750 whole entry): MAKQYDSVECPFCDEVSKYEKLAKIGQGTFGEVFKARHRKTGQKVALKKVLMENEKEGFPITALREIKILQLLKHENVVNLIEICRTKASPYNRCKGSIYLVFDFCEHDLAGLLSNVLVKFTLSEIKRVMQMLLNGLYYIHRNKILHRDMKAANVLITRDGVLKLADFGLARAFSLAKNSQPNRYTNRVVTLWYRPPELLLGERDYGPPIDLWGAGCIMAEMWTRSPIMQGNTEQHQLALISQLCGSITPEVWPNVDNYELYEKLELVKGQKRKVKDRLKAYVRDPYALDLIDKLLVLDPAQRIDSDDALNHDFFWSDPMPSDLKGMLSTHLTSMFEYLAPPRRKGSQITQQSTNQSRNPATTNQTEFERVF
Sequence of CDK9/cyclin T (O60563 whole entry partner): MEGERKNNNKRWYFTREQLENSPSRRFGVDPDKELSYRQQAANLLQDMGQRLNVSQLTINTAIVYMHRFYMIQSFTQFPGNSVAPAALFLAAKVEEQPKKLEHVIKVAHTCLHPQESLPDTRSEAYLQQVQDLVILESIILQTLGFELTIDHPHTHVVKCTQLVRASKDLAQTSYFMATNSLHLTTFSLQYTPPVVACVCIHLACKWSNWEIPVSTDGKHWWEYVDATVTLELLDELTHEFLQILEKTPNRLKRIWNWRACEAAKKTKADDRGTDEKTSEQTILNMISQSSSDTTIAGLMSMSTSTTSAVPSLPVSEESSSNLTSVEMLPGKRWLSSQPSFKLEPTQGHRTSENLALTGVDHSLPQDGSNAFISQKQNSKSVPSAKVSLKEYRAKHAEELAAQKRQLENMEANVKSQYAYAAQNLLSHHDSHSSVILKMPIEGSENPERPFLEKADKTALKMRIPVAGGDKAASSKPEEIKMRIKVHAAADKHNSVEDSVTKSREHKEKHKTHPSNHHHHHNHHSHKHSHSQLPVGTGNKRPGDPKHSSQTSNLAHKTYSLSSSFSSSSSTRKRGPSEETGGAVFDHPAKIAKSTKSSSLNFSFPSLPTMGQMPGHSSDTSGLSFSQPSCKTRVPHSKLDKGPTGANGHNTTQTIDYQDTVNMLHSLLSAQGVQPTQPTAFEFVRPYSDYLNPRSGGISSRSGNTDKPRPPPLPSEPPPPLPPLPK

| SMILES | IC50 (CDK1/cyclin B) | IC50 (DYRK2) | IC50 (DYRK1A) | IC50 (DYRK1B) | IC50 (DYRK3) | IC50 (GSK-3α/β) | IC50 (LmCK1) | IC50 (PfGSK-3) | IC50 (CLK3; [1]) | IC50 (CLK4; [2]) | IC50 (CDK5/p25) | IC50 (CLK1; [3]) | IC50 (CDK2/cyclin A) | IC50 (CDK9/cyclin T; read-out: IC50 CDK9/cyclin T) | IC50 (CLK2; [4]) | IC50 (CK1δ/ε) | IC50 (CLK3; IC50 CLK3, 15 μmol/L ATP) | IC50 (CLK4; IC50 CLK4, 15 μmol/L ATP) | IC50 (CDK9/cyclin T; IC50 CDK9/cyclin T) | IC50 (CLK2; IC50 CLK2, 15 μmol/L ATP) | also measured |
| --- | --- | --- | --- | --- | --- | --- | --- | --- | --- | --- | --- | --- | --- | --- | --- | --- | --- | --- | --- | --- | --- |
| COc1cc(/C=C2\N=C(N)NC2=O)ccc1O [PAC1, polyandrocarpamine A] | > 10 µM | 0.14 µM | 0.23 µM | 0.4 µM | 0.28 µM | > 10 µM |  |  |  |  |  |  |  |  |  |  | 2.3 µM | 0.4 µM | 1.1 µM | 1.2 µM | IC50 (CLK1; IC50 CLK1, 15 μmol/L ATP): 0.43 µM; IC50 (CK1δ/ε; listed as 1): 5.2 µM |
| NC1=NC(=Cc2cccc(Br)c2)C(=O)N1 [PAC3] | > 10 µM | 2.2 µM | 2.1 µM | 8.2 µM | > 10 µM | > 10 µM | > 10 µM | > 10 µM | > 10 µM | 2.3 µM | > 10 µM | 2.2 µM | ≥ 10 µM | > 10 µM | 6.3 µM | ≥ 10 µM |  |  |  |  |  |
| COc1ccc(C=C2N=C(N)NC2=O)cc1F [PAC4] | > 10 µM | 4.5 µM | 4 µM | > 10 µM | 5.1 µM | > 10 µM | > 10 µM | > 10 µM | > 10 µM | ≥ 10 µM | > 10 µM | ≥ 10 µM | ≥ 10 µM | > 10 µM | > 10 µM | ≥ 10 µM |  |  |  |  |  |
| CN(C)CCOc1ccc(C=C2N=C(N)NC2=O)cc1 [PAC6] | > 10 µM | > 10 µM | > 10 µM | > 10 µM | > 10 µM | > 10 µM | > 10 µM | > 10 µM | > 10 µM | > 10 µM | > 10 µM | > 10 µM | > 10 µM | > 10 µM | > 10 µM | > 10 µM |  |  |  |  |  |
| NC1=NC(=Cc2ccccc2N2CCOCC2)C(=O)N1 [PAC7] | > 10 µM | > 10 µM | > 10 µM | > 10 µM | > 10 µM | > 10 µM | > 10 µM | > 10 µM | > 10 µM | > 10 µM | > 10 µM | > 10 µM | > 10 µM | > 10 µM | > 10 µM | > 10 µM |  |  |  |  |  |
| NC1=NC(=Cc2ccc(-n3ccnc3)cc2)C(=O)N1 [PAC8] | > 10 µM | > 10 µM | > 10 µM | > 10 µM | > 10 µM | > 10 µM | > 10 µM | > 10 µM | > 10 µM | > 10 µM | > 10 µM | > 10 µM | > 10 µM | 0.51 µM | > 10 µM | > 10 µM |  |  |  |  |  |
| COc1cc(/C=C2\N=C(N)NC2=O)ccc1O [PAC12, polyandrocarpamine A] |  | 0.24 µM | 0.3 µM | 0.47 µM | 0.34 µM |  |  |  |  |  |  |  |  |  |  |  | 2.7 µM | 0.47 µM | 0.9 µM | 0.64 µM | IC50 (CLK1; IC50 CLK1, 15 μmol/L ATP): 0.47 µM; IC50 (CK1δ/ε; listed as 12): 5 µM |

Continued, in another order:

| IC50 (CDK1/cyclin B) | IC50 (DYRK2) | IC50 (DYRK1A) | IC50 (DYRK1B) | IC50 (DYRK3) | IC50 (GSK-3α/β) | IC50 (LmCK1) | IC50 (PfGSK-3) | IC50 (CLK3; [1]) | IC50 (CLK4; [2]) | IC50 (CDK5/p25) | IC50 (CLK1; [3]) | IC50 (CDK2/cyclin A) | IC50 (CDK9/cyclin T; read-out: IC50 CDK9/cyclin T) | IC50 (CLK2; [4]) | IC50 (CK1δ/ε) | SMILES | IC50 (CLK3; IC50 CLK3, 15 μmol/L ATP) | IC50 (CLK4; IC50 CLK4, 15 μmol/L ATP) | IC50 (CDK9/cyclin T; IC50 CDK9/cyclin T) | IC50 (CLK2; IC50 CLK2, 15 μmol/L ATP) | also measured |
| --- | --- | --- | --- | --- | --- | --- | --- | --- | --- | --- | --- | --- | --- | --- | --- | --- | --- | --- | --- | --- | --- |
|  | 0.48 µM | 0.75 µM | 1.1 µM | 0.9 µM |  |  |  |  |  |  |  |  |  |  |  | NC1=N/C(=C\c2ccc(O)c(O)c2)C(=O)N1 [PAC2, polyandrocarpamine B] | 9.2 µM | 0.95 µM | 2 µM | 2.5 µM |  |
| > 10 µM | 0.64 µM | 1.3 µM | 6.1 µM | 5.7 µM | > 10 µM | > 10 µM | > 10 µM | > 10 µM | 2.4 µM | > 10 µM | 2.2 µM | > 10 µM | ≥ 10 µM | 7.5 µM | > 10 µM | COc1cc(C=C2N=C(N)NC2=O)ccc1F [PAC5] |  |  |  |  |  |
|  | 0.38 µM | 0.59 µM | 0.96 µM | 0.68 µM |  |  |  |  |  |  |  |  |  |  |  | NC1=N/C(=C\c2ccc(O)c(O)c2)C(=O)N1 [PAC13, polyandrocarpamine B] | 10 µM | 0.91 µM | 1.8 µM | 2.42 µM |  |
